pEC50: −log10 of the molar value.
Target: human GPR119 (Homo sapiens (Human), UniProt Q8TDV5)
Experiment: AlphaScreen cAMP assay in Min-6/hGPR119 cells (GPR119 activation, intracellular cAMP)
Type: cell-based
Settings: MIN6 cells stably transfected with human GPR119; 45 minutes' incubation at RT; AlphaScreen cAMP Assay Kit
Method: The compounds of formula I according to the invention are GPR119 agonists. The effect of the compounds on the activation of GPR119 and on the stimulation of intracellular cAMP concentration is determined using the AlphaScreen cAMP Assay Kit (Cat. No. #6760625R) made by PerkinElmer.
MIN6 cells [Miyazaki J et al. Endocrinology. 1990 July; 127(1):126-32] were stably transfected with an expression vector for human GPR119 cDNA (Acc. No. NP_848566). Min-6/hGPR119 cells are cultured in DMEM, 10% FBS, 50 μM β-mercaptoethanol, 0.3 mg/mL Geniticin, 2 mM GlutaMAX at 37° C. 5% CO2. For the assay, the cells are placed in Optiplates (white, 384-well, 160W-barcoded, TC, sterile with lid, Cat. No. #6007688 (Perkin Elmer); 10000 cells/well; 50 μl). The plates covered with lids are then incubated for 24 hours at 37° C./5% CO2.
After the medium has been sucked out of the wells completely, 10 μl of the test compound are added, the compounds are diluted beforehand with stimulating buffer (140 mM NaCl, 3.6 mM KCl, 0.5 mM NaH2PO4, 0.5 mM MgSO4, 1.5 mM CaCl2, 10 mM Hepes, 5 mM NaHCO3; pH 7.4. 0.5 mM IBMX and 0.1% BSA, the final DMSO concentration is 1%). After 45 minutes' incubation at RT, the cAMP concentrations are determined using the AlphaScreen cAMP Assay Kit (Cat. No. #6760625R from PerkinElmer).

Sequence of human GPR119 (Q8TDV5 whole entry): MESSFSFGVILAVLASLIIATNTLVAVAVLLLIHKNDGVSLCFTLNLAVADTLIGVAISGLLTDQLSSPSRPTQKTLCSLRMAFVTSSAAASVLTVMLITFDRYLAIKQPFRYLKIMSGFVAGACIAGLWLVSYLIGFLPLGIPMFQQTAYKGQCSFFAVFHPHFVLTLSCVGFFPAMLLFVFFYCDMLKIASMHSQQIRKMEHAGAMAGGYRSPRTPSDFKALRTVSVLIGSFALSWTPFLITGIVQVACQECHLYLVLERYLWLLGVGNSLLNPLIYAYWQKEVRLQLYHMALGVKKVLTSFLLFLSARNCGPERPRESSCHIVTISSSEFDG

pEC50	SMILES
6.51	CC[C@@H]1C(=O)NN=C(c2ccc3nc(-c4ccccc4)oc3c2)[C@H]1C (relative stereo) [Example 126, trans-4-ethyl-5-methyl-6-(2-phenyl-benzoxazol-6-yl)-4,5-dihydro-2H-pyridazin-3-one]
7.25	CCC[C@@H]1C(=O)NN=C(c2ccc3nc(-c4ccccc4)oc3c2)[C@H]1C (relative stereo) [Example 128, trans-5-methyl-6-(2-phenyl-benzoxazol-6-yl)-4-propyl-4,5-dihydro-2H-pyridazin-3-one]
5.17	CCC[C@H]1C(=O)NN=C(c2ccc3nc(-c4ccccc4)oc3c2)[C@H]1C (relative stereo) [Example 129, cis-5-methyl-6-(2-phenyl-benzoxazol-6-yl)-4-propyl-4,5-dihydro-2H-pyridazin-3-one]
6.68	CC[C@@H]1C(c2ccc3nc(-c4ccccc4)oc3c2)=NNC(=O)[C@H]1C (relative stereo) [Example 145, trans-5-ethyl-4-methyl-6-(2-phenyl-benzoxazol-6-yl)-4,5-dihydro-2H-pyridazin-3-one]
5.99	CCC[C@H]1C(=O)NN=C(c2ccc3nc(-c4ccc(OCCN(C(C)C)C(C)C)cc4)oc3c2)[C@H]1C (relative stereo) [Example 169, cis-6-{2-[4-(2-diisopropylamino-ethoxy)-phenyl]-benzoxazol-6-yl}-5-methyl-4-propyl-4,5-dihydro-2H-pyridazin-3-one]
7.28	CCC[C@@H]1C(=O)NN=C(c2ccc3nc(-c4ccc(OCCN(C(C)C)C(C)C)cc4)oc3c2)[C@H]1C (relative stereo) [Example 170, trans-6-{2-[4-(2-diisopropylamino-ethoxy)-phenyl]-benzoxazol-6-yl}-5-methyl-4-propyl-4,5-dihydro-2H-pyridazin-3-one]
7.43	CCC[C@@H]1C(=O)NN=C(c2ccc3nc(-c4ccc(OC(C)C)cc4)oc3c2)[C@H]1C (relative stereo) [Example 171, trans-6-[2-(4-isopropoxy-phenyl)-benzoxazol-6-yl]-5-methyl-4-propyl-4,5-dihydro-2H-pyridazin-3-one]
6.12	CCC[C@@H]1C(=O)NN=C(c2ccc3nc(-c4ccc(OCCCN5CCCCC5)cc4)oc3c2)[C@H]1C (relative stereo) [Example 172, trans-5-methyl-6-{2-[4-(3-piperidin-1-yl-propoxy)-phenyl]-benzoxazol-6-yl}-4-propyl-4,5-dihydro-2H-pyridazin-3-one]
7.04	CCC[C@@H]1C(=O)NN=C(c2ccc3nc(-c4ccc(OC)cc4)oc3c2)[C@H]1C (relative stereo) [Example 174, trans-6-[2-(4-methoxy-phenyl)-benzoxazol-6-yl]-5-methyl-4-propyl-4,5-dihydro-2H-pyridazin-3-one]
6.97	CC[C@H]1C(c2ccc3nc(-c4ccc(OC(C)C)cc4)oc3c2)=NNC(=O)[C@@H]1C (relative stereo) [Example 178, trans-5-ethyl-6-[2-(4-isopropoxy-phenyl)-benzoxazol-6-yl]-4-methyl-4,5-dihydro-2H-pyridazin-3-one]
5.42	CC[C@@H]1C(c2ccc3nc(-c4ccc(OC(C)C)cc4)oc3c2)=NNC(=O)[C@@H]1C (relative stereo) [Example 179, cis-5-ethyl-6-[2-(4-isopropoxy-phenyl)-benzoxazol-6-yl]-4-methyl-4,5-dihydro-2H-pyridazin-3-one]
6.94	CCC[C@H]1C(=O)NN=C(c2ccc3nc(-c4ccc(F)cc4)oc3c2)[C@@H]1C (relative stereo) [Example 182, trans-6-[2-(4-fluoro-phenyl)-benzoxazol-6-yl]-5-methyl-4-propyl-4,5-dihydro-2H-pyridazin-3-one]
6.87	CCC[C@H]1C(=O)NN=C(c2ccc3nc(-c4cccs4)oc3c2)[C@@H]1C (relative stereo) [Example 183, trans-5-methyl-4-propyl-6-(2-thiophen-2-yl-benzoxazol-6-yl)-4,5-dihydro-2H-pyridazin-3-one]
7.28	CCC[C@H]1C(=O)NN=C(c2ccc3nc(-c4ccc(C)s4)oc3c2)[C@@H]1C (relative stereo) [Example 184, trans-5-methyl-6-[2-(5-methyl-thiophen-2-yl)-benzoxazol-6-yl]-4-propyl-4,5-dihydro-2H-pyridazin-3-one]
6.85	CCC[C@H]1C(=O)NN=C(c2ccc3nc(-c4ccc(Cl)cc4)oc3c2)[C@@H]1C (relative stereo) [Example 185, trans-6-[2-(4-chloro-phenyl)-benzoxazol-6-yl]-5-methyl-4-propyl-4,5-dihydro-2H-pyridazin-3-one]
7.06	CCC[C@H]1C(=O)NN=C(c2ccc3nc(-c4cc(C)cs4)oc3c2)[C@@H]1C (relative stereo) [Example 186, trans-5-methyl-6-[2-(4-methyl-thiophen-2-yl)-benzoxazol-6-yl]-4-propyl-4,5-dihydro-2H-pyridazin-3-one]
6.76	CCC[C@H]1C(=O)NN=C(c2ccc3nc(-c4ccsc4)oc3c2)[C@@H]1C (relative stereo) [Example 187, trans-5-methyl-4-propyl-6-(2-thiophen-3-yl-benzoxazol-6-yl)-4,5-dihydro-2H-pyridazin-3-one]
6.90	CCC[C@H]1C(=O)NN=C(c2ccc3nc(-c4cc(C)oc4C)oc3c2)[C@@H]1C (relative stereo) [Example 189, trans-6-[2-(2,5-dimethyl-furan-3-yl)-benzoxazol-6-yl]-5-methyl-4-propyl-4,5-dihydro-2H-pyridazin-3-one]
5.95	CCCC[C@@H]1C(=O)NN=C(c2ccc3nc(-c4ccccc4)oc3c2)[C@H]1C (relative stereo) [Example 197, trans-4-butyl-5-methyl-6-(2-phenyl-benzoxazol-6-yl)-4,5-dihydro-2H-pyridazin-3-one]
6.05	C=CC[C@H]1C(=O)NN=C(c2ccc3nc(-c4ccccc4)oc3c2)[C@H]1C (relative stereo) [Example 198, cis-4-allyl-5-methyl-6-(2-phenyl-benzoxazol-6-yl)-4,5-dihydro-2H-pyridazin-3-one]
6.08	CCC[C@H]1C(=O)NN=C(c2ccc3nc(-c4ccc(OCc5ccccc5)cc4)oc3c2)[C@H]1C (relative stereo) [Example 199, cis-6-[2-(4-benzoxy-phenyl)-benzoxazol-6-yl]-5-methyl-4-propyl-4,5-dihydro-2H-pyridazin-3-one]
7.28	CCC[C@@H]1C(=O)NN=C(c2ccc3nc(-c4ccc(OCc5ccccc5)cc4)oc3c2)[C@H]1C (relative stereo) [Example 200, trans-6-[2-(4-benzoxy-phenyl)-benzoxazol-6-yl]-5-methyl-4-propyl-4,5-dihydro-2H-pyridazin-3-one]
6.50	CCC1CC(=O)NN=C1c1ccc2nc(-c3ccc(O[C@@H]4CCCC[C@H]4N(CC)CC)cc3)oc2c1 (relative stereo) [Example 224, 6-{2-[4-(trans-2-diethylamino-cyclohexyloxy)-phenyl]-benzoxazol-6-yl}-5-ethyl-4,5-dihydro-2H-pyridazin-3-one]
6.64	CCC1CC(=O)NN=C1c1ccc2nc(-c3ccc(O[C@H]4CCC[C@@H]4N4CCCCC4)cc3)oc2c1 (relative stereo) [Example 225, 5-ethyl-6-{2-[4-(trans-2-piperidin-1-yl-cyclopentyloxy)-phenyl]-benzoxazol-6-yl}-4,5-dihydro-2H-pyridazin-3-one]
6.96	CCC[C@H]1C(=O)NN=C(c2ccc3nc(-c4cccn4C)oc3c2)[C@@H]1C (relative stereo) [Example 252, Trans-5-methyl-6-[2-(1-methyl-1H-pyrrol-2-yl)-benzoxazol-6-yl]-4-propyl-4,5-dihydro-2H-pyridazin-3-one]
7.39	CCC1OC(=O)NN=C1c1ccc2nc(-c3ccccc3)oc2c1 (stereo in doubt) [Example 79, (S)-6-ethyl-5-(2-phenyl-benzoxazol-6-yl)-3,6-dihydro-[1,3,4]oxadiazin-2-one]
6.21	CCC1OC(=O)NN=C1c1ccc2nc(-c3ccccc3)oc2c1 (stereo in doubt) [Example 80, (R)-6-ethyl-5-(2-phenyl-benzoxazol-6-yl)-3,6-dihydro-[1,3,4]oxadiazin-2-one]
6.66	CCC[C@@H]1C(=O)NN=C(c2ccc3nc(-c4ccc(OCCN5CCCCC5)cc4)oc3c2)[C@H]1C (stereo in doubt) [Example 173, trans-5-methyl-6-{2-[4-(3-piperidin-1-yl-ethoxy)-phenyl]-benzoxazol-6-yl}-4-propyl-4,5-dihydro-2H-pyridazin-3-one]
6.63	CCC1CC(=O)NN=C1c1ccc2nc(-c3ccc(OCCN4[C@@H](C)CC[C@@H]4C)cc3)oc2c1 (stereo in doubt) [Example 250, 6-(2-{4-[2-((2R,5R)-trans-2,5-dimethylpyrrolidin-1-yl)-ethoxy]-phenyl}-benzoxazol-6-yl)-5-ethyl-4,5-dihydro-2H-pyridazin-3-one]
6.52	CCC[C@H]1C(=O)NN=C(c2ccc3nc(C4CC4)oc3c2)[C@@H]1C (stereo in doubt) [Example 253, 6-(2-cyclopropyl-benzoxazol-6-yl)-5-methyl-4-propyl-4,5-dihydro-2H-pyridazin-3-one]
